Earlier results on four compounds are cited in US8372823B2, “Tetracyclic inhibitors of fatty acid amide hydrolase” (The Scripps Research Institute, priority 2007, dated 2013).

The conditions of data set [1]: CREAE mice, model of multiple sclerosis; cited from earlier work.
For data set [2] the following is noted: rats; cited from earlier work.
For data set [3] the following is noted: rats; cited from earlier work. This is another data set of the same source.
For data set [4] the following is noted: rats; cited from earlier work. This is another data set of the same source.
In a further data set the target is T1, FAAH (Homo sapiens, UniProt O00519).
T1 sequence (O00519 1-579): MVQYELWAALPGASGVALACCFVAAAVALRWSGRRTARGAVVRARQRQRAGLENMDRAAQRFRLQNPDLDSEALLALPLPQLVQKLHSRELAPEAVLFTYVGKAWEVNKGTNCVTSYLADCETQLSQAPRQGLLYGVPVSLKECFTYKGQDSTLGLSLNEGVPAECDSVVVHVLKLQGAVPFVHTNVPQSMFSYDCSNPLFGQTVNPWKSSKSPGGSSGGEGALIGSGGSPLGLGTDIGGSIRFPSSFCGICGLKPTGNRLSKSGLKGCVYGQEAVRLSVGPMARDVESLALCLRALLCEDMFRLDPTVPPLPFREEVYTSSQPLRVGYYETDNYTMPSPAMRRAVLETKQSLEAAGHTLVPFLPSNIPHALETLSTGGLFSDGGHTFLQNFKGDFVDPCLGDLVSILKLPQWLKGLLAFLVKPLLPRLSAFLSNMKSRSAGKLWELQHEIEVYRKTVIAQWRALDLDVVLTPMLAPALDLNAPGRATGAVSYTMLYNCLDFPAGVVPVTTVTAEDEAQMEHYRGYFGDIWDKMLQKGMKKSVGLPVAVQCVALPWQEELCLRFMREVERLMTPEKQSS
The note with it: cited from earlier work.

For data set [5] the following is noted: rat; cited from earlier work.
The conditions of data set [6]: rats; cited from earlier work. This is another data set of the same source.
For data set [7] the following is noted: rat; cited from earlier work. This is another data set of the same source.

Take `CCCCCCCCCCCCCCCCS(=O)(=O)F` [AM374]: the reduction of spasticity result in data set [1] is “significantly reduce spasticity”.
For the compound `Cc1nc(-c2ccccc2)c(-c2ccccc2)n1CCCCCCNC(=O)Oc1ccccc1F` [BMS-1], the “analgesic effect in Chung spinal nerve ligation model” value in data set [2] is on record as “analgesic effect”. In data set [3], the “analgesic effect in Hargraves test of acute thermal nociception” value is on record as “analgesic effect”.
Turning to `O=C(CCCCCCc1ccccc1)c1ncc(-c2ccccn2)o1` [OL-135], the “analgesic activity in tail emersion test” value in data set [4] is given as “analgesic activity”. Further, the “inhibition of FAAH” value on FAAH was “potent inhibitor”. For the same compound, the “analgesic activity in hot plate test” value in data set [5] was “analgesic activity”.
In the case of `NC(=O)c1cccc(-c2cccc(OC(=O)NC3CCCCC3)c2)c1` [URB-597], in data set [6], the “efficacy in zero plus maze model of anxiety” value is reported as “efficacy”. In addition, the “analgesic efficacy in formalin test” value in data set [7] is given as “analgesic efficacy”. In addition, in data set [5], the “analgesic activity in hot plate test” value was “analgesic efficacy”.
